# Data taken from patent publication US5270310A, “N-aminoalkyl amide inhibitors of protein kinase C” (Sphinx Pharmaceuticals Corporation, priority 1991, dated 1993).
# pIC50: −log10 of the molar value.
# What was measured:
# [1] = tested on: MCF-7/ADR adriamycin resistant line of MCF-7 cells; assay: Human Tumor Cell Growth Inhibition, MCF-7/ADR; format: cell-based; conditions: NCI/ADR-RES, 3H-thymidine incorporation, value without parentheses (not salt)
# From the text: MCF-7 a human breast tumor cell line and MCF-7/ADR an adriamycin resistant line of MCF-7 cells were obtained from the National Cancer Institute, Frederick, Md. CEM cells (ATCC accession number CCL 119) were obtained from the American Type Culture Collection, Rockville, Md. Human tumor cells are trypsinized (0.05% trypsin, GIBCO), counted with a hemacytometer and seeded at a concentration of 10,000 cells/well in a 96 well microtiter plate. After allowing cells to attach to the surface overnight, the culture medium is aspirated and replaced with 100 μl of fresh medium. Test agents are diluted to determine dose response at 2× final concentration and added in quadruplicate at 100 μl/well to bring the total volume of each well to 200 μl. The microtiter plate is then incubated at 37° C. 5% CO2 overnight (18-24 hrs) before ^3 H-thymidine is added at a concentration of 0.5 μCi/well in 50 μl culture medium. The plate is incubated again for 4 hrs under the same conditions as above. Supernatant is then aspirated and 50 μl trypsin (0.05%, GIBCO) is added to each well. Cells are checked microscopically to determine detachment from surfaces, and plates are then harvested with a cell harvester (PHD, Cambridge Technology, Inc.) Filter papers corresponding to wells are placed in scintillation vials and counted to determine the amount of ^3 H-thymidine incorporated by the cells. […]
# protein kinase C (PKC) = assay: Protein Kinase C Inhibition; format: biochemical, rat
# Method: The protein kinase C (PKC) assay is designed to duplicate the in vivo conditions required for protein kinase C function. Therefore, pH, salt and cofactor concentrations are similar to physiologic levels. Histone H1 (lysine rich) is used in the assay as the phosphorylation acceptor protein because it is readily available and serves as a good substrate for protein kinase C. The enzyme is prepared from rat brain and is purified to apparent homogeneity as determined by a single band on silver stained SDS-polyacrylamide. Studies on the mechanism of regulation of protein kinase C by phospholipids, DAG and Ca^+2 have been hampered by the physical properties of the lipid cofactors. In the screening assay, phosphatidylserine (PS) and DAG are co-sonicated to form unilamellar and multilamellar vesicles. The concentration of lipids in the assay are suboptimal to maximize the detection potential of the assay for inhibitors. […] The assay is started with the addition of enzyme and stopped after 10 min by the addition of 25% trichloroacetic acid (TCA) and 1.0 mg/ml bovine serum albumin (BSA). The radioactive histone product is retained and washed on glass fiber filters that allow the unreacted ^32 P-ATP to pass through. The amount of phosphorylation is determined by the radioactivity measured in a scintillation counter. Controls are included in every assay to measure background activity in the absence of enzyme, activity in the absence of lipids and the maximum enzyme activity with saturating levels of the activator lipids.
# Both the free base and the HCl salt were tested.
# [2] = tested on: MCF-7 human breast tumor cell line; assay: Human Tumor Cell Growth Inhibition, MCF-7; format: cell-based; conditions: Homo sapiens, MCF7; 3H-thymidine incorporation; value outside parentheses (not salt)
# Method: MCF-7 a human breast tumor cell line and MCF-7/ADR an adriamycin resistant line of MCF-7 cells were obtained from the National Cancer Institute, Frederick, Md. […] Human tumor cells are trypsinized (0.05% trypsin, GIBCO), counted with a hemacytometer and seeded at a concentration of 10,000 cells/well in a 96 well microtiter plate. After allowing cells to attach to the surface overnight, the culture medium is aspirated and replaced with 100 μl of fresh medium. Test agents are diluted to determine dose response at 2× final concentration and added in quadruplicate at 100 μl/well to bring the total volume of each well to 200 μl. The microtiter plate is then incubated at 37° C. 5% CO2 overnight (18-24 hrs) before ^3 H-thymidine is added at a concentration of 0.5 μCi/well in 50 μl culture medium. The plate is incubated again for 4 hrs under the same conditions as above. Supernatant is then aspirated and 50 μl trypsin (0.05%, GIBCO) is added to each well. Cells are checked microscopically to determine detachment from surfaces, and plates are then harvested with a cell harvester (PHD, Cambridge Technology, Inc.) Filter papers corresponding to wells are placed in scintillation vials and counted to determine the amount of ^3 H-thymidine incorporated by the cells. Test agent response is compared to a positive control of cell wells with culture media only to determine the IC50. IC50 is the concentration of test compound required to inhibit fifty per cent of the incorporation of ^3 H-thymidine into proliferating cells not exposed to test agent. Uptake of ^3 H-thymidine is a standard test for measuring the metabolism of cells. Cells which are actively proliferating take up ^3 H-thymidine, whereas cells that are not proliferating take up ^3 H-thymidine at much slower rates or not at all. Test agents that inhibit the uptake of ^3 H-thymidine thus slow the growth of cells.
# [3] = tested on: PMA-stimulated neutrophils; assay: Neutrophil Superoxide Anion (O2^-) Release Assay; format: cell-based, human; conditions: Homo sapiens, Neutrophil; PMA-stimulated; value outside parentheses (not salt); read-out: Neutrophil Superoxide Release IC50
# Method: Neutrophils are isolated form whole blood collected from human volunteers. All reagent materials are obtained from Sigma Chemical Company with the exception of isotonic saline (Travenol Laboratories, Inc., Deerfield, Ill.) and lymphocyte separation medium (Organon Teknika, Durham, N.C.).
# Whole blood is drawn and mixed with sodium heparin (final conc. 10 units/ml) to prevent clotting. An equal volume of dextran (3.0%) in isotonic saline is added, mixed, and allowed to settle for 30 min to bind red blood cells (RBC). Supernatant is removed, underlayered with lymphocyte separation medium and centrifuged for 40 min at 400 xg in a centrifuge (Beckman GPR, Norcross, Ga). The pellet is alternately resuspended in 0.2% and 1.6% NaCl to lyse RBCs before washing with Hank's Balanced Salt Solution (HBSS). The washed pellet is resuspended in 10 mL HBSS and placed on ice before counting on a hemacytometer.
# The neutrophil cell concentration is adjusted to 2×10^6 cells/ml with HBSS before adding 0.8 mL cells to 12×75 mm polypropylene test tubes (Fisher Scientific). Test agents are diluted to determine dose response and added at 10× final concentration at a volume of 0.1 mL/tube in duplicate. Then 10× concentrations of cytochrome C (15 mg/ml) with catalase (3000 units/ml) either alone or containing 25 ng/ml phorbol 12-myristate 13-acetate (PMA) are added at a volume of 0.1 mL/tube and incubated at 37° C. for 30 min before stopping the reaction by placing tubes on ice. Tubes are then centrifuged at 900 xg for 10 min, 0.5 mL supernatant is removed and added to 0.5 mL H2 O in a microcuvette. Optical density (OD) of cytochrome c is read in a spectrophotometer (Shimadzu) at 550 nm. The ΔOD of cytochrome c is obtained between PMA-stimulated and non-stimulated tubes, and the dose responses of the test agents are compared to the positive controls (which contain HBSS in place of test agents). PMA stimulates O2^- production which reduces cytochrome c. Reducing cytochrome c increases its absorbance, and the change in OD of cytochrome c is proportional to the amount of O2^- produced by PMA stimulation. Inhibition of the O2^- burst by test compounds of the invention is seen as a reduction in the change in optical density. Inhibition is expressed as IC50 μM and is the amount of test compound that will inhibit fifty percent of the PMA-stimulated respiratory outburst, i.e. O2^- production.
# [4] = target: T1, protein kinase (PKA), catalytic subunit (Homo sapiens, UniProt P17612); assay: cAMP-Dependent Protein Kinase (PKA) Assay; format: biochemical; conditions: free base
# T1 construct: purchased Sigma Chemical Company, St. Louis, Mo
# Method: Compound found to be inhibitors of protein kinase C are tested for inhibitory activity against protein kinase (PKA). This enzyme, like protein kinase C, plays an important role in cell-cell communication and is activated by a second messenger, cAMP. Secondary screening against PKA is useful for ascertaining the selectivity of the compounds of the invention. The catalytic subunit of PKA (Sigma Chemical Company, St. Louis, Mo.) is mixed with buffer before addition of the inhibitor in dimethylsulfoxide (DMSO). The assay is started by the addition of 32P-ATP and the reaction is allowed to proceed for 10 min before stopping with 25% trichloroacetic acid (TCA) and 1.0 mg/ml bovine serum albumin (BSA). The phosphorylated protein is isolated by filtration and the radioactivity is counted in a beta scintillation counter.
# [5] = tested on: NHEK cells (proliferating keratinocytes); assay: Human Keratinocyte Inhibition; format: cell-based; conditions: 3H-thymidine incorporation, value outside parentheses (not salt), read-out: NHEK IC50
# Method: Proliferating keratinocytes (NHEK cells purchased from Clonetics, Inc., San Diego, Calif.) in second passage were grown in Keratinocyte Growth Medium (KGM) (Clonetics, Inc.) Cells are trypsinized (0.025% trypsin, Clonetics), counted with a hemacytometer (Scientific Products), and seeded at a concentration of 2,500 cells/well in a 96 well microtiter plate. After allowing cells to attach to the surface overnight, the culture medium is aspirated and replaced with 100 μl of fresh KGM. […] IC50 is the concentration of test compound required to inhibit fifty percent of the incorporation of ^3 H-thymidine into proliferating cells not exposed to test agent.
pIC50 [1],pIC50 (protein kinase C (PKC); HCl salt),pIC50 (protein kinase C (PKC); free base),pIC50 [2],pIC50 [3],pIC50 [4],SMILES,pIC50 [5]
5.59,4.18,3.89,5.39,5.74,< 3.66,"CCCCCCCCCCCCCCCC(=O)NCCCN1CCCCC1C (stereo not drawn) [Compound 11, 2-Methyl-l-[3-(N-hexadecanoyl)aminopropyl]piperidine]",–
< 4.60,–,4.66,4.71,–,3.88,"CCCCCCCCCCCCCCCC(=O)N(C)CCC[N+]1(C)CCOCC1 [Compound 16, 4-[N-hexadecanoyl-N-methyl-4-(3-aminopropyl)]-4-methylmorpholimium iodide]",5.85
